Results from PubChem BioAssay AID588398 (Broad Institute, 2011).
Inconclusive results are not listed.

Test: LMP1 TES1 pathway selectivity over dsRED control – imaging, HEK293T, dual-color eGFP/dsRED, cherry-picks, selectivity assay for LMP1 NF-kB inhibitor project, dose response (AID 588398)
Conditions: HEK293T LMP1 TES1-eGFP reporter, 48 h, dsRED channel counter-screen

SMILES	AC50 [µM]
CCn1c2ccccc2c2cc(/C=N/n3c(-c4cc(C)[nH]n4)n[nH]c3=S)ccc21	0.862
CS(=O)(=O)c1ccc(Sc2nc3ccccc3s2)c([N+](=O)[O-])c1	3.22
CC(=NNC(=S)Nc1ccccc1)c1ccccn1	1.37
CCn1c2ccccc2c2cc(/C=N/NC(=O)c3cc(O)cc(O)c3)ccc21	2.14
COc1cccc(/C=N/Nc2nccnc2Cl)c1O	12.1
Cc1nnc(SCC(=O)N2CCC(c3noc4ccc(F)cc34)CC2)s1	1.69
CC(C)(O)C#Cc1ccc([C@@H]2C[C@H]3CN(c4ccccc4)C(=O)[C@]34CCCN24)s1	14.9
NC(=S)NN=Cc1nccc2c(C(F)(F)F)cccc12	4.06
O=C(Nc1ccc(C(=O)N2CCOCC2)cc1)Nc1cccc(C(F)(F)F)c1	0.966
COc1ccc(N/N=C/c2c(C(=O)O)ccc3ccccc23)cc1	12.4
CC(=C/c1ccccc1)/C=N/n1c(-c2ccncc2)n[nH]c1=S	1.3
O=Cc1ccc(-c2cccs2)s1	2.71
S=C(NN=Cc1ccccn1)Nc1ccccn1	> 19.5
CN(CCNC(=O)C1CCN(S(=O)(=O)N2CCOCC2)CC1)CCc1ccccc1	> 19.5
O=C(c1ccccc1)C(CCC(CN1CCOCC1)C(=O)c1ccccc1)CN1CCOCC1 (stereo not given)	1.99
CNc1cccnc1C=NNC(N)=S	12.8
O=C(NN=Cc1ccc(N(CCCl)CCCl)cc1Cl)c1cccnc1	1.58
Cc1nn(-c2ccccc2)c(Cl)c1C1C(C#N)=C(N)Oc2n[nH]c(C)c21 (stereo not given)	11.5
COc1ccc(-c2csc3ncnc(Sc4nnnn4C)c23)cc1	10.5
COC(=O)[C@@]1(Cc2ccccc2)[C@H]2C(=O)N(Cc3ccccc3)C(=O)[C@H]2[C@H]2CN=C(SCc3ccc(Cl)cc3)N21	2.49
c1nc(NCc2ccc3c(c2)OCO3)c2cc(-c3ccoc3)ccc2n1	1.56
CC(=NNc1nc2ccccc2s1)c1ncccn1	7.33
O=C(CF)N(O)c1ccc(C=Cc2ccccc2)cc1	1.51
COc1ccc(-c2csc(Nc3cccc(C)n3)n2)cc1OC	> 19.5
CCCN(CC)c1ncnc2[nH]ncc12	1.41

SMILES	AC50 [µM]
COc1cccc(/C=N/NC(=O)c2[nH]nc3c2CCc2ccccc2-3)c1O	5.87
CC[C@]1(C(=O)OC)[C@H]2C(=O)N(Cc3ccccc3)C(=O)[C@H]2[C@H]2CN=C(SCc3ccc(C#N)cc3)N21	2.82
CC(=NNC(=S)Nc1ccccc1Cl)c1ccccn1	1.37
O=C(N/N=C/c1c(O)ccc2ccccc12)c1cccnc1	4.3
CC1=C(C(=O)OCc2ccc3c(c2)OCO3)C(c2ccc(Cl)cc2)NC(=O)N1 (stereo not given)	0.1
Cc1ccc2[nH]c3c(c2c1)CCCC3NC(=O)CCl (stereo not given)	3.25
COc1cc([C@@H]2c3cc4c(cc3[C@@H](O[C@@H]3O[C@@H]5CO[C@@H](C)O[C@H]5[C@H](O)[C@H]3O)[C@H]3COC(=O)[C@H]23)OCO4)cc(OC)c1O	14.5
N#CC(C#N)=NNc1ccc(-n2ccc(C(F)(F)F)n2)cc1	6.47
CC[C@]1(C(=O)OC)[C@H]2C(=O)N(Cc3ccccc3)C(=O)[C@H]2[C@H]2CN=C(SCc3ccc(Cl)cc3)N21	1.32
O=C(N/N=C/c1ccc(O)cc1O)c1ccc(CN2C(=O)c3cccc4cccc2c34)cc1	12.7
O=C(N/N=C/c1cc2c3c(c1O)CCCN3CCC2)c1ccccc1O	8.25
Cc1cc(C)nc(N/C(=N\S(=O)(=O)Cc2ccccc2)Nc2ccccc2Br)n1	18.1
CC(=NNC(=S)N1CCCC1)c1ccccn1	17.8
COc1ccc(C=C2CS(=O)(=O)CC(=Cc3ccc(OC)cc3)C2=O)cc1	1.61
Cc1ccccc1C(=O)N1CCN(c2ccc(NC(=O)CSc3ccc(Cl)cc3)cc2)CC1	0.253
CCCC(=O)NC(c1ccc(C(C)C)cc1)c1ccc2cccnc2c1O (stereo not given)	4.16
C#CCN(C[C@@H]1[C@@H](OC(=O)NCc2ccccc2F)[C@@H](OC(=O)NCc2ccccc2F)Cn2c(=O)ccc(=O)n21)S(=O)(=O)c1ccc(C)cc1	3.9
Cc1cc(N2CCOCC2)c2c(N)c(Br)cc(C)c2n1	3.34
CC1CC(C)C(=O)C(C(CC2CC(=O)NC(=O)C2)OC(=O)CC(=O)c2ccccc2)C1 (stereo not given)	5.02
O=C(N/N=C/c1ccc[nH]1)c1ccc(COc2cccc3cccnc23)cc1	19.2
Cc1cc(=O)[nH]c(NN=Cc2cc(Br)ccc2O)n1	8.82
COc1cc(C=C2CCCC(=Cc3ccc(OCC4CO4)c(OC)c3)C2=O)ccc1OCC1CO1 (stereo not given)	8.08
COc1ccc(-n2c(C)c([N+](=O)[O-])c3ccc(O)c(CN(C)C)c32)cc1	0.665
COc1ccc(-n2c(C)c(C(C)=O)c3cc(OC(C)=O)ccc32)cc1	1
CCN(CC)S(=O)(=O)c1ccc(N/N=C/c2ccc(O)cc2O)nc1	4.19

SMILES	AC50 [µM]
COC(=O)[C@@]1(C)[C@H]2C(=O)N(Cc3ccccc3)C(=O)[C@H]2[C@H]2CN=C(SCc3ccc(Cl)cc3)N21	2.41
CCC(=O)NC(c1cc(Cl)c2cccnc2c1O)C1CC1 (stereo not given)	13
CCC(=O)NC(c1ccc(C)cc1)c1ccc2cccnc2c1O (stereo not given)	3.61
C#CCN(C[C@@H]1[C@@H](OC(=O)NCC2CCCCC2)[C@@H](OC(=O)NCC2CCCCC2)Cn2c(=O)ccc(=O)n21)S(=O)(=O)c1ccc(C)cc1	2.83
N#CC(C#N)c1ccnc2ccccc12	6.14
CC(=O)NC(c1ccc(Cl)cc1)c1ccc2cccnc2c1O (stereo not given)	4.14
NC(=S)NN=Cc1nccc2c(C(F)(F)C(F)(F)C(F)(F)F)cccc12	1.27
CCn1c2ccccc2c2cc(/C=N/NC(=O)c3ccncc3)ccc21	1.68
O=C(N/N=C/c1sc2ccccc2c1O)c1cccc2ccccc12	4.27
COc1cccc(/C=N/Nc2ncnc(Cl)c2N)c1O	3.08
c1ccc(C(=NNc2nc3ccccc3s2)c2ccccn2)cc1	1.48
CCC(=O)NC(c1ccc(Cl)cc1Cl)c1ccc2cccnc2c1O (stereo not given)	4.23
CC1CCN(C(=O)/C(=C\c2cccs2)NC(=O)c2ccccc2)CC1	> 19.5
Oc1ccc2ccccc2c1N=Nc1ccccn1	7.53
CC1Cc2ccccc2N1c1ncnc(N)c1[N+](=O)[O-] (stereo not given)	0.411
O=[N+]([O-])c1ccc2ncnc(N3CCN(Cc4ccc5c(c4)OCO5)CC3)c2c1	2.87
COc1ccc(N2Cc3ccccc3C2=O)cc1	> 19.5
C[n+]1c2n(c3ccccc31)N=C(c1cc(C(C)(C)C)c(O)c(C(C)(C)C)c1)CS2	10.8
CCCCC(=O)NC(c1ccc(OC)c(OC)c1)c1ccc2cccnc2c1O (stereo not given)	13.6
CCC(C)Nc1nc(-c2ccccn2)nc2ccccc12 (stereo not given)	8.45
CCN1CCN(Cc2ccc(NC(=O)c3ccc(C)c(NC(=O)c4ccno4)c3)cc2C(F)(F)F)CC1	0.0579
C/C(=N/NC(=O)c1ccc(C(C)(C)C)cc1)c1ccccn1	14.3
CCOC(=O)c1c(-n2cccc2)sc2c1CCCC2=O	11
Cc1nn(-c2ccccc2)c(Cl)c1C(=O)N1CCN(c2ncnc3c2cnn3-c2ccccc2)CC1	12.9
CC(=O)NC(c1ccc(Cl)cc1Cl)c1ccc2cccnc2c1O (stereo not given)	5.82

SMILES	AC50 [µM]
O=c1c(O)c(-c2ccc(O)c(O)c2)oc2cc(O)cc(O)c12	> 19.5
CCOc1ccc(Nc2ncnc3ccc([N+](=O)[O-])cc23)cc1	1.93
CC(=NNc1nc2ccccc2o1)c1ncccn1	1.13
COc1cccc(/C=N/Nc2nc3ccccc3[nH]2)c1O	12
CCOC(=O)/C=C(\C)Sc1cc(=O)oc2ccccc12	8.75
C=C1C(=O)C2=CC1CCC(=O)C1(C)CCC(OC(C)=O)C(C)(C)C1CC2O (stereo not given)	2.73
CCOc1ccc(/C=C/[N+](=O)[O-])c2ccccc12	4.38
Cc1cc(C)n(-c2ccc(NN=C(C#N)C#N)cc2)n1	5.01
Cc1[nH]n(-c2ccc(Br)cc2)c(=O)c1/C=N/NC(=O)c1ccccc1	11.2
O=S(=O)(c1ccc2c(c1)C(=NO)c1cc(S(=O)(=O)N3CCCCC3)ccc1-2)N1CCCCC1	> 19.5
CN1CCN(/N=C/c2ccc(N(c3ccccc3)c3ccccc3)cc2)CC1	0.505
CN1C(=O)N(C)c2ccc(C=O)c3cccc1c23	12.9
Cc1ccc(C(=O)Nc2cccc(C(F)(F)F)c2)cc1Nc1ncnc2nc[nH]c12	9.97
OCCCNc1nccc(-c2cc(Nc3cccc(Cl)c3)ncn2)n1	4.72
CC(=NNC(=S)N1CC2CCC(CC2)C1)c1nccs1	4.15
NC(=O)c1sc2nccc(Nc3ccccc3)c2c1N	4.04
CCN(CC)c1ccc(/C=N/NC(=O)c2ccc3nc[nH]c3c2)c(O)c1	16.9
C=CCn1c(C)c(C(C)=O)c(N2CCN(C(c3ccccc3)c3ccccc3)CC2)nc1=S	> 19.5
Cc1ccc(-c2csc(=Nc3cccnc3)n2CCCn2ccnc2)cc1C	5.1
N#Cc1ncc(N=Cc2ccc(N(CCCl)CCCl)cc2)s1	12.6
COc1ccc(-c2csc3ncnc(NCCCO)c23)cc1	4.81
CCCC(=O)NC(c1ccc(C)cc1)c1ccc2cccnc2c1O (stereo not given)	4.12
CC(=NNc1nc2ccccc2o1)c1cc2ccccc2cn1	3.99
Oc1ccc(C=NNC(=S)Nc2ccccc2)nc1	11.1
NC(=S)N/N=C/c1ncc(C(F)(F)F)cc1Cl	12.1
